What is called pKi is the negative decadic logarithm of the Ki, by convention in mol/L. High values mean a small Ki, low ones a large Ki.

In BindingDB's records for doi:10.1016/s0028-3908(97)00038-5 (Smithkline Beecham Pharmaceuticals, 1997) one finds Ki data, which are given here for one compound.

SMILES strings stand for the structures. pKi: −log10 of the molar value.

Test [1] deals with 5-hydroxytryptamine receptor 4 (Sus scrofa, UniProt Q29006).
Test [2] deals with 5-hydroxytryptamine receptor 7 (Homo sapiens, UniProt P34969).
A further test addresses D(2) dopamine receptor (Mesocricetus auratus, UniProt A0A1U7QAF5).
For test [3], the target named is Tyrosine-protein kinase Fyn (Homo sapiens, UniProt P06241).
In test [4] the target is T1, Alpha-1B adrenergic receptor (Mesocricetus auratus, UniProt P18841).
T1 sequence (P18841 whole entry): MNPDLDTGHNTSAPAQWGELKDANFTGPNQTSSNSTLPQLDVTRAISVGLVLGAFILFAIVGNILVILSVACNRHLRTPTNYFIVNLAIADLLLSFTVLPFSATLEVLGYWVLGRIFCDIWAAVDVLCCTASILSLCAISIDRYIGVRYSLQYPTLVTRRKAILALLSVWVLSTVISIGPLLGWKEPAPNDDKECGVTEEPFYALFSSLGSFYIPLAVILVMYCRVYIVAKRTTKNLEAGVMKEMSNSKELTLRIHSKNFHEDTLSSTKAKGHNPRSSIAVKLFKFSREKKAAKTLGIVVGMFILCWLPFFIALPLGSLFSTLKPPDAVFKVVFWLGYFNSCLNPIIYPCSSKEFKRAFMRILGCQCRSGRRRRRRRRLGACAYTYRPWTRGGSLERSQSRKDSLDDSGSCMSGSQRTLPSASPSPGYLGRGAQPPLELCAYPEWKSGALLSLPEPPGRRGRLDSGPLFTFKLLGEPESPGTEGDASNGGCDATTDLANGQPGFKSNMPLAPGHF

Test [5] has as its target 5-hydroxytryptamine receptor 1B (Cricetulus griseus, UniProt P46636).
In a further test the target is D(3) dopamine receptor (Cricetulus griseus, UniProt A0A3Q0CXS4).
Sequence of D(3) dopamine receptor (A0A3Q0CXS4 whole entry): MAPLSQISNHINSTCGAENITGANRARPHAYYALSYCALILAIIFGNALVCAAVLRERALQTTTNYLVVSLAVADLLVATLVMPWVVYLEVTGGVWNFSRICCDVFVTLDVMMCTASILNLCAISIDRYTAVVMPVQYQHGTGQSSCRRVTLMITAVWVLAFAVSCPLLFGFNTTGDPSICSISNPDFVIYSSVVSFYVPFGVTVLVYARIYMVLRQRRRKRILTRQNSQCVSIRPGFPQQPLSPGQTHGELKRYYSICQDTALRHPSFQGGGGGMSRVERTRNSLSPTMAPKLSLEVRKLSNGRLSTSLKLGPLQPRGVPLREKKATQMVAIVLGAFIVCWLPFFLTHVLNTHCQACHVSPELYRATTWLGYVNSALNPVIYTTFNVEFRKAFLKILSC

Sequence of 5-hydroxytryptamine receptor 1B (P46636 whole entry): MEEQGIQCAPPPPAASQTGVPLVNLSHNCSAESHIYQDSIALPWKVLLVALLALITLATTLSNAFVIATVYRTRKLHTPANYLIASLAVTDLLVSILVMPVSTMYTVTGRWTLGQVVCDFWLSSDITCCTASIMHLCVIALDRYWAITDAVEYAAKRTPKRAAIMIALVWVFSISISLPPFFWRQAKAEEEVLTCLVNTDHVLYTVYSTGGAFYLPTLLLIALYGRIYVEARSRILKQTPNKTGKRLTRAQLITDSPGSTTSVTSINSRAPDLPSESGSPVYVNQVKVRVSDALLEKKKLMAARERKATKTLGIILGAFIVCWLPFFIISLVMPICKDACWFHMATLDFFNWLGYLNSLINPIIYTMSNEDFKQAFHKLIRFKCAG
Sequence of D(2) dopamine receptor (A0A1U7QAF5 whole entry): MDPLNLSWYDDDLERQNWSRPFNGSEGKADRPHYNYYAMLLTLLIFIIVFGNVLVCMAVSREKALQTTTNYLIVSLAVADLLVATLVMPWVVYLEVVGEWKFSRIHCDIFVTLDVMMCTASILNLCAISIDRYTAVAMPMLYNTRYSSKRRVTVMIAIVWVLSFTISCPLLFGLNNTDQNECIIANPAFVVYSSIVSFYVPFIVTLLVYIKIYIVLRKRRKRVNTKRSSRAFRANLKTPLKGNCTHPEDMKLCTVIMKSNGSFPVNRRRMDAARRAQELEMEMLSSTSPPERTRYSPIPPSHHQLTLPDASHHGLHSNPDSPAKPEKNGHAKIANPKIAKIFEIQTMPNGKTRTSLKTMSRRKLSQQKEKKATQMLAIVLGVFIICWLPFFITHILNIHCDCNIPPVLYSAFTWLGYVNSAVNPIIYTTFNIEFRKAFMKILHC
Sequence of 5-hydroxytryptamine receptor 4 (Q29006 whole entry): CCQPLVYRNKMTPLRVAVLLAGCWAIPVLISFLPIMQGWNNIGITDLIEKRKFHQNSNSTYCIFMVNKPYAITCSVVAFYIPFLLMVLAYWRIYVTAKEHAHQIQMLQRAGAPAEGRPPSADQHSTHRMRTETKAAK
Sequence of Tyrosine-protein kinase Fyn (P06241 whole entry): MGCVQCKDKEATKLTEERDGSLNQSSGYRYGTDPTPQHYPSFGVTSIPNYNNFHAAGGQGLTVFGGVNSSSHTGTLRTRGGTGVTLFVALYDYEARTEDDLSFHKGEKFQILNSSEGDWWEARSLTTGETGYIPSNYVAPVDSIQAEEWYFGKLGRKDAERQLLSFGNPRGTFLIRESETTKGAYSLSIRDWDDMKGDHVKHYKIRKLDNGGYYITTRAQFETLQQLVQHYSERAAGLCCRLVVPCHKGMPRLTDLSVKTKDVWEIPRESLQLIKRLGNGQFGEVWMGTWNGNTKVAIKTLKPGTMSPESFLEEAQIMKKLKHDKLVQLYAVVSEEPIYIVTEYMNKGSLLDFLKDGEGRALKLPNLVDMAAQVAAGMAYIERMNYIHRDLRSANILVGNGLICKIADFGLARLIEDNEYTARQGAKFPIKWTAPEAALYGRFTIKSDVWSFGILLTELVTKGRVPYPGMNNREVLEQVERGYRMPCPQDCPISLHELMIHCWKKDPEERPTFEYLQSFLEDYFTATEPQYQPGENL
Sequence of 5-hydroxytryptamine receptor 7 (P34969 whole entry): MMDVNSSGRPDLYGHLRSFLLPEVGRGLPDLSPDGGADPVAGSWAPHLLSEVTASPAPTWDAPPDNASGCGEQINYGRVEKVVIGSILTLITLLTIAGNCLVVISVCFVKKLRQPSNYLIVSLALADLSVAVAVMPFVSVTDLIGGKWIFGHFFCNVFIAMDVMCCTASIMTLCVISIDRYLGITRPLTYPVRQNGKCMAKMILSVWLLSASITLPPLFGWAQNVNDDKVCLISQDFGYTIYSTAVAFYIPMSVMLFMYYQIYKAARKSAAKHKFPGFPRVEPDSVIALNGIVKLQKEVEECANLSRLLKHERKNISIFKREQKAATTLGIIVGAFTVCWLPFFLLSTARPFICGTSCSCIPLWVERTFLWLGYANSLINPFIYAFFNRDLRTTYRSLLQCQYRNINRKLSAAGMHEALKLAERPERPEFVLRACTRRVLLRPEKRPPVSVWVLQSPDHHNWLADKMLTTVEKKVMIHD

For the compound `Cc1cc2c(cc1Cl)N(C(=O)Nc1ccc(Oc3cccnc3C)nc1)CC2` [CAS_181632-25-7], the pKi in test [1] was 5.50; in test [2] it was 6.10; on D(2) dopamine receptor, 6.20; in test [3], 6.00; in test [4], less than 5.00; in test [5] it was 6.40. The compound further gave a negative-log Ki (pKi) on D(3) dopamine receptor of 6.20.
